# Test results from patent publication US12364678B2, “Pharmaceutical composition comprising palmitoylethanolamide and L- Acetylcarnitine” (EPITECH GROUP S.P.A., priority 2014, dated 2025).
# Columns and labels:
# [1] = test system: sciatic nerve ligation; settings: 10 mg/kg; cited from earlier work
# [2] = test system: sciatic nerve ligation; test: Mechanical allodynia after sciatic nerve ligation (neuropathic pain model), Dynamic Plantar Aesthesiometer; assay type: in vivo, mice of the C57BL/6J strain; settings: alone
# Description: The experiments were carried out by using male mice of the C57BL/6J strain with a weight ranging between 25 and 30 g; 10 animals per group were used. The animals were anesthetized with sodium pentobarbital (60 mg/kg, i.p.) and subjected to a surgical procedure of sciatic nerve ligation capable of inducing neuropathic pain in accordance with the method described by Bennet and Xie (1988, Pain; 33:87-107). Sham animals were used as a control. The products were administered p.o. with a tube, suspended in 2% CarboxymethylCellulose. The mechanical allodynia was measured by using the Dynamic Plantar Aesthesiometer equipment of the Company Ugo Basile-Varese, Italy. The values in the table are referred to the weight, expressed in grams, to which the animal object of the experiment, subjected thereto, withdraws its paw when feeling pain.
# [3] = test system: carrageenan; test: Carrageenan (CAR) test, hyperalgesic response, paw withdrawal latency (Plantar Test); assay type: in vivo, Wistar male rats; settings: for lengthening of the retraction time compared to the control: 5 mg/kg, individually administered (FIG. 2b); for increase of latency time after CAR: all time points (FIG. 3b)
# Description: The carrageenan (CAR) test was performed according to a protocol that provides intra-plantar injection of carrageenan in rats and administration of the active ingredient orally by gavage. This is a standard inflammation test. The 1% (weight/volume) carrageenan solution (Sigma) was prepared in sterile saline and subsequently kept at 37° C. for 1 hour to obtain complete solubilization. The paw edema was induced in Wistar male rats by injecting 200 μl of carrageenan into the plantar aponeurosis of the right hind paw. Hyperalgesic response to heat was measured at various time points (0, 30 min, 1, 2, 3, 4, 5 and 6 h) in accordance with the method described by Hargreaves et al. (Pain, 32 (1988), 77-88) using the Plantar Test 7371 (Ugo Basile, Italy). In short, the animals were allowed to move freely in an open transparent plastic chamber. After a period of acclimatization, a heat source radiating infrared light (IR 60) was placed under the glass floor and concentrated on the hind paw. When the animal felt pain and withdrew its paw, the source was turned off and the time measured was recorded.
# [4] = test system: carrageenan; test: Carrageenan (CAR) test, paw edema volume by plethysmometer; assay type: in vivo, Wistar male rats; settings: for effect on the formation of the edema by carrageenan (paw volume): 5 mg/kg orally, alone, 30 minutes to 6 hours after carrageenan (FIG. 2a); for reduction of the volume of the legs after CAR: all time points (FIG. 3a)
# Description: The carrageenan (CAR) test was performed according to a protocol that provides intra-plantar injection of carrageenan in rats and administration of the active ingredient orally by gavage. This is a standard inflammation test. The 1% (weight/volume) carrageenan solution (Sigma) was prepared in sterile saline and subsequently kept at 37° C. for 1 hour to obtain complete solubilization. The paw edema was induced in Wistar male rats by injecting 200 μl of carrageenan into the plantar aponeurosis of the right hind paw. The increase in size of the treated paw was measured prior to induction and 30 minutes after injection of the inflammatory agent using a plethysmometer (model 7140; Ugo Basile). The subsequent paw size measurements were taken at 60-minute intervals with respect to the first measurement, for a total of 7 measurements. The difference between the values obtained from the treated animals and the control animals was calculated and assessed statistically for all six hours.
# [5] = test system: sciatic nerve ligation; settings: 100 mg/kg; cited from earlier work
structure (smiles),measurement,setting,value
CCCCCCCCCCCCCCCC(=O)NCCO [palmitoylethanolamide],effect in the neuropathic pain model,[1],particularly relevant effect
"CCCCCCCCCCCCCCCC(=O)NCCO [PEA-um, palmitoylethanolamide]",alleviation of the neuropathic pain (mechanical allodynia),[2]; 5 mg/kg p.o.,do not cause a significant activity
same,alleviation of the neuropathic pain (mechanical allodynia),[2]; 10 mg/kg p.o.,significant alleviation
"CC(=O)O[C@H](CC(=O)[O-])C[N+](C)(C)C [LAC, L-Acetylcarnitine]",lengthening of the retraction time compared to the control,[3],do not show any effect
same,increase of latency time after CAR,[3]; LAC 3.0 mg/kg oral,did not achieve a significant increase
same,increase of latency time after CAR,[3]; LAC 5.0 mg/kg oral,did not achieve a significant increase
same,effect on the formation of the edema by carrageenan (paw volume),[4],does not have a significant effect
same,reduction of the volume of the legs after CAR,[4]; LAC 3.0 mg/kg oral,did not achieve a significant reduction
same,reduction of the volume of the legs after CAR,[4]; LAC 5.0 mg/kg oral,did not achieve a significant reduction
same,mechanical allodynia,[5],decrease the mechanical allodynia
same,alleviation of the neuropathic pain (mechanical allodynia),[2]; 10 mg/kg p.o.,do not cause a significant activity
same,alleviation of the neuropathic pain (mechanical allodynia),[2]; 100 mg/kg p.o.,significant alleviation
"CCCCCCCCCCCCCCCC(=O)NCCO [PEA-m, palmitoylethanolamide]",lengthening of the retraction time compared to the control,[3],do not show any effect
same,effect on the formation of the edema by carrageenan (paw volume),[4],does not have a significant effect
